These results are taken from patent US20040024293A1, “Methods and systems for analyzing complex biological systems” (priority 2001, published 2004).

“Also recorded” adds a separate entry of the source.

Assay [1] relates to Arabidopsis thaliana plants. The assay is described as follows: Phenotypic analysis of herbicide-treated Arabidopsis plants (SOA1). The assay is classed as in vivo. The following applies: for leafCurling (Dev.) / leafTwisting (Dev.) / leafWidth (Dev.) / matureLeafAnthocyanins (Dev.) / matureLeafChlorosis (Dev.) / matureLeafNecrosis (Dev.) / newLeafAnthocyanins (Dev.) / newLeafChlorosis (Dev.) / newLeafNecrosis (Dev.) / pointedLeaves (Dev.) / tMic (Dev.): SOA1, numeric value standardized to mock treated; for Symptom Class: three-week-old Arabidopsis plants treated with herbicide, phenotypes of FIG. 12.

Assay [2] deals with Saccharomyces cerevisiae wild type strain BY4743. The assay is described as follows: Combined gene expression and metabolite data mapped to KEGG reactions and pathways (AF1). The assay is classed as cell-based. The following applies: yeast. The text has this: In AF1, two different technologies were utilized: gene expression analysis (for examination of mRNA expression) and metabolite analysis. […] As noted previously, existing metabolic databases may be helpful in practicing the methods and systems of the present invention, but many databases include limitations that make their use in data analysis and pathway mapping less than straightforward. […] This caveat to KEGG makes it difficult to pinpoint the correct pathway when attempting to link a gene to a specific pathway. […] The pathway score indicates how meaningful the mapping is, or how likely it is to be correctly indicative of the pathway involved in the perturbation under examination. The method provides a pathway score based on perturbation levels of genes. and/or compounds and the information content of each gene and/or compound in the pathway, i.e., a pathway score indicates the extent to which other pathways are mapped to a gene/compound. For example, imagine that two genes are perturbed in a particular experiment. One gene maps to only one pathway, giving a high degree of probability that the perturbed pathway is the one identified in the mapping. The second gene maps to three pathways. In the later example, there is only one-third the probability that the pathway identified in the mapping is the one perturbed. The present invention provides a method for calculating the pathway scores, so that more weight is given to a score of a gene or compound that maps to only one pathway than to a score of a gene or compound that maps to multiple pathways. […] Where n=the total number of genes in the pathway; ipath—count=the number of pathways containing a gene; and j=the number of genes in the pathway that are perturbed. Another factor to be considered when weighting a pathway score is the degree of perturbation. Degree of perturbation can be calculated, for example, based on a number of standard deviations from a norm, and included in an equation such as the one shown above, so that not only the number of pathways is taken into account, but also accounts for the amount of gene transcript or compound present as compared to a control. Compounds were also linked to pathways using the KEGG database. KEGG links 676 compounds measured in AF1 to a total of 92 pathways. Of the 676 compounds under consideration, 77 were detected in the AF1 samples. […] The multiple mapping feature of KEGG makes it difficult to pinpoint the correct pathway when trying to link a compound to a specific pathway. […] A pathway score calculation is applied to the compounds to account for both information content (number of pathways a compound maps to) and perturbation level. […]

Assay [3] concerns Arabidopsis plants. To be noted: nitrate addition to N-starved Arabidopsis plants; cited from earlier work.
The subject of assay [4] is Arabidopsis thaliana. Put plainly: Gene expression profiling (22,000 gene array) of sprayed Arabidopsis (MOA1). The assay is classed as in vivo. The following applies: for No. of Lethal Genes Altered / gene expression perturbations compared to the other treatments: 1 hr.
The subject of assay [5] is Arabidopsis thaliana. The assay is described as follows: Biochemical (metabolite) profiling by LC-MS and GC-MS of sprayed Arabidopsis (MOA1). The assay is classed as in vivo.
Assay [6] has as its system Magnaporthe grisea. The assay is classed as cell-based.
[7] abbreviates: concentrations insufficient to inhibit growth.

Regarding `O=C(O)COc1ccc(Cl)cc1Cl` [2,4-D], in assay [1], the “leafCurling (Dev.)” value stood at 1, the “leafTwisting (Dev.)” value is listed as 2, the “leafWidth (Dev.)” value is −1 and the “matureLeafAnthocyanins (Dev.)” value was determined as 1. For the same compound, in assay [1], the “matureLeafChlorosis (Dev.)” value is given as 2, the “matureLeafNecrosis (Dev.)” value is 0, the “newLeafAnthocyanins (Dev.)” value was 0 and the “newLeafChlorosis (Dev.)” value was found to be 1. For the same compound, in assay [1], the “newLeafNecrosis (Dev.)” value worked out at 0, the “pointedLeaves (Dev.)” value was 0, the “tMic (Dev.)” value amounted to 2 and the “Symptom Class” value stood at 5.

In the case of `OC(Cn1cncn1)(Cn1cncn1)c1ccc(F)cc1F` [Fluconazole], the “# Reactions (Number Of Pathways Having at Least One Enzyme and One Compound Perturbed)” value in assay [2] came to 15.

With `O=[N+]([O-])O` [Nitrate], in assay [3], the “Nitrate Regulation of Glutamate synthetase gene” value is recorded as “↑”, the “Nitrate Regulation of Glutamine synthetase (2) genes” value was “↑”, the “Nitrate Regulation of MADs Box (2) genes” value was “↓” and the “Nitrate Regulation of MYB transcription factor gene” value is given as “↑”. In assay [3], the “Nitrate Regulation of Malate Dehydrogenase gene” value is “↑”, the “Nitrate Regulation of Nitrate transporter gene” value is listed as “↑”, the “Nitrate Regulation of Phosphate transporter gene” value is on record as “↑” and the “Nitrate Regulation of Transaldolase gene” value was “↑”. Further, the “Nitrate Regulation of Transketolase gene” value in assay [3] was “↑”.

Turning to `CC(=O)N1CCN(c2ccc(OCC3COC(Cn4ccnc4)(c4ccc(Cl)cc4Cl)O3)cc2)CC1` (stereo not shown) [Ketoconazole], the “# Reactions (Number Of Pathways Having at Least One Enzyme and One Compound Perturbed)” value in assay [2] was found to be 24.

`COC(=O)NS(=O)(=O)c1ccc(N)cc1` [Asulam]: in assay [4], the “No. of Lethal Genes Altered” value is recorded as 5 and the “gene expression perturbations compared to the other treatments” value is “fewest gene expression perturbations”.

Take `CNc1cnn(-c2cccc(C(F)(F)F)c2)c(=O)c1Cl` [Norfluazon, Norflurazon]: the stress-related metabolites observed result in assay [5] (MOA1, 20 min and 1 hr) was “Only a few, if any”.

Regarding `C[n+]1ccc(-c2cc[n+](C)cc2)cc1` [Paraquat], in assay [1], the “Symptom Class” value amounted to 7.

On to `c1cc[n+]2c(c1)-c1cccc[n+]1CC2` [Diquat], for which, in assay [1], the “leafCurling (Dev.)” value is given as 2, the “leafTwisting (Dev.)” value came out at 0, the “leafWidth (Dev.)” value is listed as −2 and the “matureLeafAnthocyanins (Dev.)” value worked out at 0. In assay [1], the “matureLeafChlorosis (Dev.)” value was found to be 1, the “matureLeafNecrosis (Dev.)” value came out at 4, the “newLeafAnthocyanins (Dev.)” value stood at 0 and the “newLeafChlorosis (Dev.)” value is on record as 1. In assay [1], the “newLeafNecrosis (Dev.)” value is 4, the “pointedLeaves (Dev.)” value came out at 1, the “tMic (Dev.)” value was found to be 2 and the “Symptom Class” value was determined as 7.

For the compound `O=C(O)CNCP(=O)(O)O` [Glyphosate], in assay [1], the “leafCurling (Dev.)” value was determined as 0, the “leafTwisting (Dev.)” value came out at 0, the “leafWidth (Dev.)” value was 0 and the “matureLeafAnthocyanins (Dev.)” value is 3. For the same compound, in assay [1], the “matureLeafChlorosis (Dev.)” value is 1, the “matureLeafNecrosis (Dev.)” value worked out at 3, the “newLeafAnthocyanins (Dev.)” value turned out to be 1 and the “newLeafChlorosis (Dev.)” value stood at 2. Besides, in assay [1], the “newLeafNecrosis (Dev.)” value came out at 0, the “pointedLeaves (Dev.)” value is recorded as 1, the “tMic (Dev.)” value turned out to be 2 and the “Symptom Class” value is 4. Moreover, in assay [5] (in vivo), the “tyrosine (metabolite downstream from the SOA) relative to the control” value is listed as “decreased”. Moreover, the “growth results of Unknown 4 and glyphosate compared” value in assay [6] is reported as “nearly identical”. Besides, the “Growth inhibition of M. grisea on inclusion of aromatic amino acids to the media” value in assay [6] (1.0 mg/ml) is “remediated”. Also, the “Growth of M. grisea with ammonium or glutamine as nitrogen source” value in assay [6] (Tier 4) is given as “Little growth defect”.

Take `CN(C)C(=O)Nc1ccc(Cl)c(Cl)c1` [Diuron]: in assay [1], the “leafCurling (Dev.)” value was 1, the “leafTwisting (Dev.)” value is recorded as 0, the “leafWidth (Dev.)” value is given as −2 and the “matureLeafAnthocyanins (Dev.)” value turned out to be 0. In assay [1], the “matureLeafChlorosis (Dev.)” value is on record as 2, the “matureLeafNecrosis (Dev.)” value is recorded as 4, the “newLeafAnthocyanins (Dev.)” value was found to be 0 and the “newLeafChlorosis (Dev.)” value is recorded as 2. Moreover, in assay [1], the “newLeafNecrosis (Dev.)” value worked out at 4, the “pointedLeaves (Dev.)” value was found to be 1, the “tMic (Dev.)” value was 1 and the “Symptom Class” value was determined as 7.

For the compound `CP(=O)(O)CCC(N)C(=O)O` (stereo not shown) [Glufosinate], in assay [1], the “leafCurling (Dev.)” value turned out to be 2, the “leafTwisting (Dev.)” value was found to be 1, the “leafWidth (Dev.)” value was −2 and the “matureLeafAnthocyanins (Dev.)” value worked out at 0. Further, in assay [1], the “matureLeafChlorosis (Dev.)” value came out at 3, the “matureLeafNecrosis (Dev.)” value is given as 0, the “newLeafAnthocyanins (Dev.)” value amounted to 0 and the “newLeafChlorosis (Dev.)” value is 3. Moreover, in assay [1], the “newLeafNecrosis (Dev.)” value is 0, the “pointedLeaves (Dev.)” value was determined as 1, the “tMic (Dev.)” value stood at 1 and the “Symptom Class” value is on record as 3. Moreover, the stress-related metabolites observed entry in assay [5] (in vivo) is on record as “Only a few, if any”. Also, in assay [4], the “No. of Lethal Genes Altered” value is 10. For the same compound, the “Regulated Genes Following Herbicide Treatment: Down” value in assay [4] (in vivo) was 54. Moreover, the “nitrogen sources M. grisea is able to utilize in the presence of the compound” value in assay [6] is “only able to utilize glutamine and glutamate”.

Regarding `O=C(O)c1ccccc1C(=O)Nc1cccc2ccccc12` [Naptalam], in assay [4], the “No. of Lethal Genes Altered” value came to 3 and the “gene expression perturbations compared to the other treatments” value is recorded as “fewest gene expression perturbations”. Also, in assay [4] (in vivo), the “Regulated Genes Following Herbicide Treatment: Down” value turned out to be 47 and the “Regulated Genes Following Herbicide Treatment: Up” value is given as 50.

With `CS(=O)(=O)c1cc(C(F)(F)F)ccc1C(=O)c1cnoc1C1CC1` [Isoxaflutole], the “tyrosine and phenylalanine relative to the control” value in assay [5] (Arabidopsis, after one hour) is on record as “up-regulated; also recorded: began to accumulate”. For the same compound, in assay [5] (Arabidopsis, early time points), the “Alpha-tocopherol levels relative to the control” value is “not significantly changed”. In addition, in assay [4], the “No. of Lethal Genes Altered” value is given as 15. For the same compound, in assay [6] (setting [7]), the “M. grisea growth in minimal media” value is “unaffected” and the “M. grisea growth in minimal plus tyrosine media” value was “inhibited”.

For `CC(C)C1(C)N=C(c2ncccc2C(=O)O)NC1=O` (stereo not shown) [Imazapyr], in assay [5] (MOA1, 20 min and 1 hr), the stress-related metabolites observed entry is “Only a few, if any”.

Regarding `COc1nc(C)nc(NC(=O)NS(=O)(=O)c2ccccc2Cl)n1` [Chlorsulfuron], the “No. of Lethal Genes Altered” value in assay [4] is recorded as 8.
